Experimental data reported in patent US11166959B2, “Isofuranone compounds useful as HPK1 inhibitors” (BRISTOL-MYERS SQUIBB COMPANY, priority 2017, dated 2021).
Read-outs that look alike come from different tables or passages of the source.

What was measured:
[1] = biological target: T1, HPK1 (Homo sapiens, UniProt Q92918); assay: HPK1 Inhibition Assay (kinase reaction, Caliper capillary electrophoresis); assay type: biochemical; settings: for IRAK4/HPK1 Ratio: ratio of the IRAK4 IC50 value to the HPK1 IC50 value
T1 construct: purchased SignalChem M23-11G
T1 sequence (Q92918 1-346 limits assumed): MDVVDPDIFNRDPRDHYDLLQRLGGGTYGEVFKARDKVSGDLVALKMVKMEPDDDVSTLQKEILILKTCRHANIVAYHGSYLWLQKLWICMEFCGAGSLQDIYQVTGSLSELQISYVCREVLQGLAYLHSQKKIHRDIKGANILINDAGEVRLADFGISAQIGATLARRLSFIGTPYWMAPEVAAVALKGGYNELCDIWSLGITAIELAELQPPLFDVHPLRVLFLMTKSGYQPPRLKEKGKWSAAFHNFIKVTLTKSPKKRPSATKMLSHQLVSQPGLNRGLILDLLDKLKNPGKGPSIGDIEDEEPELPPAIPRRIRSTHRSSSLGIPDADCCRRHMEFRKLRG
Method in brief: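 Kinase reactions ran 3 h and were stopped with 1 mM EDTA, with enzyme level and time set for at most 20-30% peptide substrate conversion. Phosphorylated and unphosphorylated peptide were separated by capillary electrophoresis to measure conversion. IC50 derived from 11 compound concentrations.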

[2] = biological target: T2, IRAK4 (Homo sapiens, UniProt Q9NWZ3); assay: IRAK4 Inhibition Assay (kinase reaction, Caliper capillary electrophoresis); assay type: biochemical; settings: 500 μM ATP, 11 concentrations
T2 construct: 1 nM IRAK4 (160-460); purchased SignalChem M24016
T2 sequence (Q9NWZ3 160-460): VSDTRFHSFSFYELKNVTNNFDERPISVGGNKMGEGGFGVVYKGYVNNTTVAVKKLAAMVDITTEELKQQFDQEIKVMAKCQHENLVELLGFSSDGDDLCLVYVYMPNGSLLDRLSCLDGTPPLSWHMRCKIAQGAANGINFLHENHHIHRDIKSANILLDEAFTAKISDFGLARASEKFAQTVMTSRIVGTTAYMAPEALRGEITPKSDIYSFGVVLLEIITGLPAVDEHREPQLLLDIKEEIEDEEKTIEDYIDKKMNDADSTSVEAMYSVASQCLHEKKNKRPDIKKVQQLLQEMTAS

[3] = 0.625 nM HPK1, 22 μM ATP, 11 concentrations, read-out: HPK1 IC50

IC50 [1, 3] [µM]	SMILES	IRAK4/HPK1 Ratio [1]	IC50 [2] [µM]	IC50 [1] [µM]
0.05 to 0.25	CC1(C)OC(=O)c2ccc(Nc3cc(N[C@H](CO)c4ccccc4)c(-c4nc(C5CC5)no4)cn3)cc21 [Example 78, 5-{[5-(3-cyclopropyl-1,2,4-oxadiazol-5-yl)-4-{[(1S)-2-hydroxy-1-phenylethyl]amino}pyridin-2-yl]amino}-3,3-dimethyl-1,3-dihydro-2-benzofuran-1-one]	B (B=10 to 50)	0.25 to 1	
0.05 to 0.25	CC1(C)OC(=O)c2ccc(Nc3cc(N[C@H](CO)C4CC4)c(-c4nc(C5CC5)no4)cn3)cc21 [Example 79, 5-{[5-(3-cyclopropyl-1,2,4-oxadiazol-5-yl)-4-{[(1S)-1-cyclopropyl-2-hydroxyethyl]amino}pyridin-2-yl]amino}-3,3-dimethyl-1,3-dihydro-2-benzofuran-1-one]	B (B=10 to 50)	0.25 to 1	
	CC1(C)OC(=O)c2ccc(Nc3cc(N[C@H](CO)c4ccccc4)c(-c4nc(C56CCN(CC5)CC6)no4)cn3)nc21 [Example 81, 2-{[5-(3-{1-azabicyclo[2.2.2]octan-4-yl}-1,2,4-oxadiazol-5-yl)-4-{[(1S)-2-hydroxy-1-phenylethyl]amino}pyridin-2-yl]amino}-7,7-dimethyl-5H,7H-furo[3,4-b]pyridin-5-one]	C (C=>50)	0.05 to 0.25	< 0.05
	CC1(C)OC(=O)c2ccc(Nc3cc(N[C@H](CO)c4ccc(F)cc4)c(-c4nc(C56CCN(CC5)CC6)no4)cn3)nc21 [Example 82, 2-{[5-(3-{1-azabicyclo[2.2.2]octan-4-yl}-1,2,4-oxadiazol-5-yl)-4-{1[(1S)-1-(4-fluorophenyl)-2-hydroxyethyl]amino}pyridin-2-yl]amino}-7,7-dimethyl-5H,7H-furo [3,4-b]pyridin-5-one]	C (C=>50)	0.05 to 0.25	< 0.05
	CC1(C)OC(=O)c2ccc(Nc3cc(N[C@H](CO)c4ccccc4)c(-c4nc(C5CN6CCC5(F)CC6)no4)cn3)nc21 (stereo partly drawn) [Example 83, 2-{[5-(3-{4-fluoro-1-azabicyclo[2.2.2]octan-3-yl}-1,2,4-oxadiazol-5-yl)-4-{[(1S)-2-hydroxy-1-phenylethyl]amino}pyridin-2-yl]amino}-7,7-dimethyl-5H,7H-furo [3,4-b]pyridin-5-one]	C (C=>50)	0.05 to 0.25	< 0.05
< 0.05	CC1(C)OC(=O)c2ccc(Nc3cc(N[C@H](CO)c4ccccc4)c(-c4nnc(C5CC5)o4)cn3)nc21 [Example 86, 2-{[5-(5-cyclopropyl-1,3,4-oxadiazol-2-yl)-4-{[(1S)-2-hydroxy-1-phenylethyl]amino}pyridin-2-yl]amino}-7,7-dimethyl-5H,7H-furo[3,4-b]pyridin-5-one]	B (B=10 to 50)	0.05 to 0.25	
< 0.05	O=C1OC2(CCCC2)c2nc(Nc3cc(N[C@H](CO)c4ccccc4)c(-c4nc(C5CC5)no4)cn3)ccc21 [Example 87, (S)-2′-((5-(3-cyclopropyl-1,2,4-oxadiazol-5-yl)-4-((2-hydroxy-1-phenylethyl)amino)pyridin-2-yl)amino)-5′H-spiro[cyclopentane-1,7′-furo[3,4-b]pyridin]-5′-one]	B (B=10 to 50)	0.05 to 0.25	
< 0.05	CC1(C)OC(=O)c2ccc(Nc3cc(N[C@H](CO)c4ccccc4)c(-c4nnc(C5(C#N)CC5)o4)cn3)nc21 [Example 88, 1-{5-[6-({7,7-dimethyl-5-oxo-5H,7H-furo[3,4-b]pyridin-2-yl}amino)-4-{[(1S)-2-hydroxy-1-phenylethyl]amino}pyridin-3-yl]-1,3,4-oxadiazol-2-yl}cyclopropane-1-carbonitrile]	C (C=>50)	0.25 to 1	

SMILES	IC50 [1, 3] [µM]	IRAK4/HPK1 Ratio [1]	IC50 [2] [µM]	IC50 [1] [µM]
CC1(C)OC(=O)c2ccc(Nc3cc(NCc4nccs4)c(-c4nc(C56CCN(CC5)CC6)no4)cn3)nc21 [Example 84, 2-{[5-(3-{1-azabicyclo[2.2.2]octan-4-yl}-1,2,4-oxadiazol-5-yl)-4-{[(1,3-thiazol-2-yl)methyl]amino}pyridin-2-yl]amino}-7,7-dimethyl-5H,7H-furo[3,4-b]pyridin-5-one]	< 0.05	C (C=>50)	0.25 to 1	
CC1(C)OC(=O)c2ccc(Nc3cc(NCc4cccnc4)c(-c4nc(C56CCN(CC5)CC6)no4)cn3)nc21 [Example 85, 2-{[5-(3-{1-azabicyclo[2.2.2]octan-4-yl}-1,2,4-oxadiazol-5-yl)-4-{[(pyridin-3-yl)methyl]amino}pyridin-2-yl]amino}-7,7-dimethyl-5H,7H-furo[3,4-b]pyridin-5-one]	< 0.05	C (C=>50)	0.25 to 1	
